Assay results: patent publication US20110124630A1, “STEMONAMIDE SYNTHESIS INTERMEDIATE AND PHARMACEUTICAL COMPOSITION FOR PREVENTION AND/OR TREATMENT OF CANCER” (priority 2008, published 2011)
Blank lines part the entries; values can stand above or below the compound they belong to.

Key:
[1] = target: Pim-3 (Homo sapiens, UniProt Q86V86); assay: In vitro assay of Pim-3 kinase activity (His-Bad phosphorylation, ELISA with anti-pBad Ser112 antibody); type: biochemical; conditions: 0, 20, 40, 80, 160 μmol/l compound; 10 μmol/l ATP; 30° C. 1 hour; FIG. 1
Method: A His-Bad protein solution (3 μg/ml) diluted with a carbonate buffer (pH 9.6) (15 mmol/l Na2CO3(Wako), […] NaHCO3 (Wako), 0.02% (w/v) NaN3 (Wako), pH 9.6) was added at 100 μl/well to a 96-well microplate (Nunc-Immuno™ Plate, NUNC Brand Products, Nalge Nunc International, Denmark), and the plate was coated at 4° C. overnight. The plate was washed 3 times on the following day, a 1% BSA/PBS(−) solution was added at 150 μl/well, the plate was blocked at 37° C. for 1 hour, and the plate was then washed 3 times. A kinase buffer containing 19.2 nmol/l thioredoxin-hexahistidine-Pim-3 fusion protein, 10 μmol/l ATP (Cell Signaling), and Compounds 5, 7, and 12 synthesized in the examples above (0, 20, 40, 80, and 160 μmol/l) (25 mmol/l Tris-HCl (pH 7.5), 10 mmol/l MgCl2, 0.1 mmol/l Na3VO4, 2 mmol/l dithiothreitol (DTT), 5 mmol/l s-glycerophosphate, Cell Signaling) was added at 40 μl/well to the treated plate. After the reaction was carried out at 30° C. for 1 hour, the plate was washed 5 times, the 1.000-fold diluted anti-pBadser112 rabbit antibody (Cell Signaling) was added at 100 μl/well, and the reaction was carried out at 37° C. for 1 hour. […] The plate was subjected to the absorbance assay at 405 nm using a microplate reader (Model 550, Bio-Rad). […]

[2] = tested on: L3.6 pl cell line; assay: Cell growth assay (pancreatic cancer cell), WST-1; type: cell-based, human; conditions: Compound 7 4-10 μmol/l, Compound 12 5-30 μmol/l, 0-96 hours, FIG. 5
Method: (§1) Human pancreatic cancer cell lines (PCI35, PCI55, PCI66, MiaPaCa-2, L3.6 […], and PANC-1) were dispensed into a 96-well cell culture Microtest Plate (Becton Dickinson) at 3,000 cells/well with 100 μl of culture media. The media were removed 16 to 18 hours after the initiation of culture, and media containing the test compounds (i.e., 0.1% DMSO, Compound 7 (4, 6, 8, 10 μmol/l), Compound 12 (5, 10, 20, 30 μmol/l)) were added at 100 μl/well. After culture was continued for 0, 24, 48, 72, and 96 hours, the medium containing the test compound was removed, and a 10% WST-1 medium (Roche) was added at 100 μl/well. After culture was conducted for an additional 1 hour, the absorbance at 450 nm was assayed using a microplate reader (Model 550, Bio-Rad). RPMI-1640 medium (SIGMA) was used for the PCI35, PCI55, PCI66, MiaPaCa-2, and PANC-1 cell lines, MEM medium (Invitrogen) was used for the L3.6 pl cell lines, and 10% calf serum (Invitrogen), 50 U/ml penicillin G (SIGMA), and 50 μg/ml streptomycin (SIGMA) were added to every medium. The cell lines were cultured in a 37° C. 5% CO2 carbon dioxide incubator (ESPEC).

[3] = tested on: MiaPaCa-2 cell line; assay: Cell growth assay (pancreatic cancer cell), WST-1; type: cell-based, human; conditions: Compound 7 4-10 μmol/l, Compound 12 5-30 μmol/l, 0-96 hours, FIG. 6
Method: as §1

[4] = tested on: PANC-1 cell line; assay: Cell growth assay (pancreatic cancer cell), WST-1; type: cell-based, human; conditions: Compound 7 4-10 μmol/l, Compound 12 5-30 μmol/l, 0-96 hours, FIG. 4
Method: as §1

[5] = tested on: PCI35 cell line; assay: Cell growth assay (pancreatic cancer cell), WST-1; type: cell-based, human; conditions: Compound 7 4-10 μmol/l, Compound 12 5-30 μmol/l, 0-96 hours, FIG. 2
Method: as §1

[6] = tested on: PCI55 cell line; assay: Cell growth assay (pancreatic cancer cell), WST-1; type: cell-based, human; conditions: Compound 7 4-10 μmol/l, Compound 12 5-30 μmol/l, 0-96 hours, FIG. 3
Method: as §1

[7] = tested on: PCI66 cell line; assay: Cell growth assay (pancreatic cancer cell), WST-1; type: cell-based, human; conditions: Compound 7 4-10 μmol/l, Compound 12 5-30 μmol/l, 0-96 hours, FIG. 7
Method: as §1

[8] = tested on: Hep3B; assay: Cell growth assay (liver cancer cell), WST-1; type: cell-based, human; conditions: 4, 6, 8, 10 μmol/l, 0-96 hours, FIG. 8
Method: (§2) Human liver cancer cell lines (Hep3B, HuH7, and HepG2 at 4000, 3000, and 4000 cells/well) were dispensed into a 96-well cell culture Microtest Plate (Becton Dickinson) with 100 μl of culture media. The media were removed 16 to 18 hours after the initiation of culture, and media containing the test compounds (0.1% DMSO, Compound 7 (4, 6, 8, and 10 μmol/l)) were added at 100 μl/well. After culture was continued for 0, 24, 48, 72, and 96 hours, the medium containing the test compound was removed, and a 10% WST-1 medium (Roche) was added at 100 μl/well. After culture was conducted for an additional 1 hour, the absorbance at 450 nm was assayed using a microplate reader (Model 550, Bio-Rad). RPMI-1640 medium (SIGMA) was used, and 10% calf serum (Invitrogen), 50 U/ml penicillin G (SIGMA), and 50 μg/ml streptomycin (SIGMA) were added to the medium. The cell lines were cultured in a 37° C. 5% CO2 carbon dioxide incubator (ESPEC).

[9] = tested on: HepG2; assay: Cell growth assay (liver cancer cell), WST-1; type: cell-based, human; conditions: 4, 6, 8, 10 μmol/l, 0-96 hours, FIG. 8
Method: as §2

[10] = tested on: HuH7; assay: Cell growth assay (liver cancer cell), WST-1; type: cell-based, human; conditions: 4, 6, 8, 10 μmol/l, 0-96 hours, FIG. 8
Method: as §2

[11] = tested on: HT29; assay: Cell growth assay (colon cancer cell), WST-1; type: cell-based, human; conditions: 4, 6, 8, 10 μmol/l, 0-96 hours, FIG. 9
Method: (§3) Human colon cancer cell lines (SW48, SW480, and HT29 at 3,000 cells/well) were dispensed into a 96-well cell culture Microtest Plate (Becton Dickinson) with 100 μl of culture media. The media were removed 16 to 18 hours after the initiation of culture, and the media containing the test compounds (0.1% DMSO, Compound 7 (4, 6, 8, and 10 μmol/l)) were added at 100 μl/well. After culture was continued for 0, 24, 48, 72, and 96 hours, the medium containing the test compound was removed, and a 10% WST-1 medium (Roche) was added at 100 μl/well. After culture was conducted for an additional 1 hour, the absorbance at 450 nm was assayed using a microplate reader (Model 550, Bio-Rad). RPMI-1640 medium (SIGMA) was used, and 10% calf serum (Invitrogen), 50 U/ml penicillin G (SIGMA), and 50 μg/ml streptomycin (SIGMA) were added to the medium. The cell lines were cultured in a 37° C. 5% CO2 carbon dioxide incubator (ESPEC).

[12] = tested on: SW480; assay: Cell growth assay (colon cancer cell), WST-1; type: cell-based, human; conditions: 4, 6, 8, 10 μmol/l, 0-96 hours, FIG. 9
Method: as §3

[13] = tested on: SW48; assay: Cell growth assay (colon cancer cell), WST-1; type: cell-based, human; conditions: 4, 6, 8, 10 μmol/l, 0-96 hours, FIG. 9
Method: as §3

Compound: O=C1CC[C@@]23C(=O)CC[C@@H]2CCCCN13 [Compound 5]
inhibition of Pim-3 activity [1]: inhibit the Pim-3 activity in a concentration-dependent manner

melting point: 209 to 211 °C
Compound: CCOC(=O)C#C[C@@]1(O)/C(=C/c2ccccc2)C[C@@H]2CCCCN3C(=O)CC[C@]231 [Compound 7]
inhibition of Pim-3 activity [1]: inhibit the Pim-3 activity in a concentration-dependent manner
inhibition of cell growth [2]: inhibit the growth
inhibition of cell growth [3]: inhibit the growth
inhibition of cell growth [4]: inhibit the growth
inhibition of cell growth [5]: inhibit the growth
inhibition of cell growth [6]: inhibit the growth
inhibition of cell growth [7]: inhibit the growth
inhibition of cell growth [8]: inhibit the growth
inhibition of cell growth [9]: inhibit the growth
inhibition of cell growth [10]: inhibit the growth
inhibition of cell growth [11]: inhibit the growth
inhibition of cell growth [12]: inhibit the growth
inhibition of cell growth [13]: inhibit the growth
